{"source": "patent US20230116113A1", "about": "“USE OF COMPOUNDS THAT ARE ABLE TO CROSS-LINK THE EXTRACELLULAR MATRIX FOR PREVENTING OR INHIBITING THE MIGRATION OF CANCER CELLS” (CAMBRIDGE ENTERPRISE LIMITED, priority 2020, published 2023)", "key": {"[1]": {"test_system": "U87 GBM cells", "test": "Migration and proliferation of cells from U87 tumour spheroids in 3D hyaluronic acid-serum model brain ECM", "assay_type": "cell-based", "conditions": "5, 10 and 20 mM trientine mixed into 2 wt % HA-serum model ECM; days 1, 3, 6, 10", "quoted_text": "We first established a 3D extracellular matrix (ECM) model for brain consisting of hyaluronic acid mixed with serum proteins to support GBM cell metabolism. We then used tumour spheroids, cultured from U87 GBM cell line cells, as 3D tumour models that we implanted into the hyaluronic acid-serum model brain ECM.\nWe fabricated hyaluronic acid-serum model brain ECMs containing 2 wt %, 3.5 wt % and 5 wt % hyaluronic acid to represent low, normal and high hyaluronic acid concentrations/levels of molecular entanglement with respect to brain extracellular matrix. The low hyaluronic acid concentration model ECMs can be expected to mimic an in vivo situation where there is substantial hyaluronic acid degradation and the high hyaluronic acid concentration was set to exceed the average hyaluronic acid concentration in brain ECM by 50%.\nThe different concentrations of hyaluronic acid-serum for model ECMs were prepared by mixing hyaluronic acid with MEM complete media and foetal calf serum. […]\n(§1) Migration of cells from the spheroids, cell viability and the vertical position of the spheroid in the well were recorded on days 4, 7 and 16 using bright field, epifluorescence or confocal microscopy, before the samples were returned to the incubator to continue the experiment."}, "[2]": {"test_system": "U87 cells", "conditions": "different trientine concentrations in phosphate-buffered saline", "description": "FIG. 6: A. Optical images showing the effect of crosslinking 3D model brain ECM ionically with 5, 10 and 20 mM trientine on the migration of glioblastoma U87 cells from tumour spheroids compared to controls with no trientine crosslinking. […] B. Quantification of the extent of cancer cell migration in the 3D model brain ECM with addition of different trientine concentrations. C."}, "[3]": {"test_system": "U87 GBM cells", "protocol": "Calcein AM (acetoxymethyl), a non-fluorescent ester derivative of the fluorescent calcein dye, was used to determine the viability and integrity of spheroids. Spheroids were soaked in 1 uM calcein-AM in live cell imaging buffer for 45 minutes in a humidified 5% CO2 incubator. After incubation, the calcein-AM solution was removed, spheroids were washed three times with PBS and transferred with 50 μl of media to the top of hyaluronic acid-serum gels in chamber slide wells prepared as above. In controls, spheroids were placed into the wells with 300 μl of MEM complete supplemented medium.\nas §1"}, "[4]": {"test_system": "K7M2 mouse osteosarcoma cell line", "test": "Invasion of K7M2 osteosarcoma tumour spheroids into 3D 1.5 mg/ml collagen-medium model ECM", "assay_type": "cell-based", "conditions": "monitored for 14 days", "description": "Bone extracellular matrix consists primarily of calcified collagen type I. Calcification is invariably disrupted around metastasizing osteosarcoma tumours, allowing tumour cells to migrate through the extracellular matrix. Thus, we chose to model the bone/osteosarcoma extracellular matrix with a 3D 1.5 mg/ml collagen gel. This concentration of collagen gel promoted invasion by the K7M2 mouse osteosarcoma cell line (FIG. 9).\nCollagen gels (1.5 mg/ml) in DMEM complete medium as model bone extracellular matrix was prepared from a stock 5 wt % collagen gel (IBIDI, Germany). K7M2 cells were cultured in DMEM complete medium supplemented with 10% foetal calf serum, antibiotics, and pyruvate. The cultures were maintained in T-75 cm^2 culture flasks and incubated at 37° C. and 5% CO2 in a humidified incubator. At 70% confluence, cells were detached from the surface of the flasks after incubating for 2 min at room temperature with 4 ml of trypsin-EDTA. The cell suspension was then centrifuged at 1400 rpm for 5 min at room temperature to pellet the cells. […]\nCell invasion was monitored for 14 days (FIG. 10). […]"}, "[5]": {"conditions": "cited from earlier work"}}, "note": "Entries after “also recorded” stand apart in the source; their conditions may differ."}
{"smiles": "NCCNCCNCCN", "note": "[trientine]", "values": [{"measurement": "cell migration from U87 tumour spheroids", "setting": "[1]", "value": "inhibited in a trientine-concentration dependent manner; also recorded: clearly inhibited"}, {"measurement": "toxicity to U87 cells (live/dead cell analysis)", "setting": "[2]", "value": "non-toxic to U87 cells"}]}
{"smiles": "Cc1cc2nc3c(=O)[nH]c(=O)nc-3n(C[C@H](O)[C@H](O)[C@H](O)CO)c2cc1C", "note": "[riboflavin]", "values": [{"measurement": "cell metabolic activity (calcein-AM staining)", "setting": "[3]", "value": "remained metabolically active"}]}
{"smiles": "COC(=O)C1=CO[C@@H](O)[C@@H]2C(CO)=CC[C@H]12", "note": "[genipin]", "values": [{"measurement": "cell invasion of model collagen extracellular matrix", "setting": "[4]; 0.05 wt % genipin in 1.5 mg/ml collagen gel", "value": "only minimal invasion"}, {"measurement": "cell invasion of model collagen extracellular matrix", "setting": "[4]; 0.3 wt % genipin in 1.5 mg/ml collagen gel", "value": "no observable cell invasion"}, {"measurement": "acute toxicity", "setting": "[5]; literature statement", "value": "low acute toxicity"}, {"measurement": "LD50", "setting": "[5]; mouse, in vivo, iv", "value": 153, "unit": "mg/kg"}]}
